Assay results as given in ChEMBL document CHEMBL5096181, “Isoxazole derivatives as anticancer agent: A review on synthetic strategies, mechanism of action and SAR studies” (Eur J Med Chem, 2021).
In brackets after ≈: the same amount, converted by molar mass. Blank lines part the entries; values can stand above or below the compound they belong to.

Assays:
[1] = system: Huh-7; test: Cytotoxicity against human Huh-7 cells assessed as cell growth inhibition and measured after 72 hrs by SRB assay; format: functional, cell-based; conditions: Huh-7, 72 h
[2] = system: Mahlavu; test: Cytotoxicity against human Mahlavu cells assessed as cell growth inhibition and measured after 72 hrs by SRB assay; format: functional, cell-based
[3] = system: MCF7; test: Cytotoxicity against human MCF7 cells assessed as cell growth inhibition and measured after 72 hrs by SRB assay; format: functional, cell-based; conditions: MCF7, 72 h
[4] = system: DU-145; test: Cytotoxicity against human DU-145 cells assessed as inhibition of cell growth by MTT assay; format: functional, cell-based
[5] = system: MCF7; test: Anticancer activity against human MCF7 cells assessed as inhibition of cell proliferation measured after 4 hrs by MTT assay; format: functional, cell-based; conditions: MCF7, 4 h
[6] = system: LNCaP; test: Antiproliferative activity against human LNCaP cells assessed as cell growth inhibition by MTT assay; format: functional, cell-based
[7] = system: PC-3; test: Antiproliferative activity against human PC-3 cells assessed as cell growth inhibition by MTT assay; format: functional, cell-based
[8] = system: LNCaP C4-2B; test: Antiproliferative activity against human LNCaP C4-2B cells assessed as cell growth inhibition by MTT assay; format: functional, cell-based
[9] = system: CWR22R; test: Antiproliferative activity against human 22Rv1 cells assessed as cell growth inhibition by MTT assay; format: functional, cell-based
[10] = target: Tubulin; test: Inhibition of tubulin polymerization (unknown origin) by spectrophotometer based analysis; format: protein-complex assay, Homo sapiens
[11] = system: MCF7; test: Cytotoxicity against human MCF7 cells assessed as cell growth inhibition by MTT assay; format: functional, cell-based
[12] = target: T1, Tyrosine-protein phosphatase non-receptor type 1 (Homo sapiens, UniProt P18031); test: Inhibition of PTP1B (unknown origin) by SpectraMax 340 microplate reader Analysis
T1 sequence (P18031 whole entry): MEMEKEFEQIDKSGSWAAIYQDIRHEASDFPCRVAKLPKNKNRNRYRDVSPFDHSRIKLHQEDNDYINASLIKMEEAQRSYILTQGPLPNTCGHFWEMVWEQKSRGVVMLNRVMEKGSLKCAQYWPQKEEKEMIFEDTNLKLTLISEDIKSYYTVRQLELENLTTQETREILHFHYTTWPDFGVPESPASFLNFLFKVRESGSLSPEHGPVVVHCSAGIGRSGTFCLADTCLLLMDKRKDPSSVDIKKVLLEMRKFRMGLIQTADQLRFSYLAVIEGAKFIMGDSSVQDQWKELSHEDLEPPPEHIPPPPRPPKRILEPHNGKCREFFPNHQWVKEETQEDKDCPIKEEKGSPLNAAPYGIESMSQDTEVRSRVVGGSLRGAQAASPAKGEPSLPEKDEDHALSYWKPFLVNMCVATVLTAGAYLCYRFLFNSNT

[13] = target: T2, Tyrosine-protein phosphatase non-receptor type 2 (Homo sapiens, UniProt P17706); test: Inhibition of TCPTP (unknown origin) by SpectraMax 340 microplate reader Analysis
T2 sequence (P17706 whole entry): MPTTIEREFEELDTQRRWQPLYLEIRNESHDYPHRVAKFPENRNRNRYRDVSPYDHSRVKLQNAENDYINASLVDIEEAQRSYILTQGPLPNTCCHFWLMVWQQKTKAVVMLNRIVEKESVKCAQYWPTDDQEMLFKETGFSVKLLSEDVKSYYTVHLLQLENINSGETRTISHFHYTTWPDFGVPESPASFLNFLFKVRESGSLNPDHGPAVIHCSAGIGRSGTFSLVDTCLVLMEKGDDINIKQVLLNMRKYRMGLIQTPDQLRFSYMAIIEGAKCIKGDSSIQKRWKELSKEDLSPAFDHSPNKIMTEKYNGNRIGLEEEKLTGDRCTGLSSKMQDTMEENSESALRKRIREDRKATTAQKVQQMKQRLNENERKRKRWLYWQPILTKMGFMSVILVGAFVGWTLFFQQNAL

[14] = target: T3, Estrogen receptor (Homo sapiens, UniProt P03372); test: Inhibition of ERalpha (unknown origin) in MCF7 cells measured after 24 to 48 hrs by FRET assay; format: cell-based
T3 sequence (P03372 whole entry): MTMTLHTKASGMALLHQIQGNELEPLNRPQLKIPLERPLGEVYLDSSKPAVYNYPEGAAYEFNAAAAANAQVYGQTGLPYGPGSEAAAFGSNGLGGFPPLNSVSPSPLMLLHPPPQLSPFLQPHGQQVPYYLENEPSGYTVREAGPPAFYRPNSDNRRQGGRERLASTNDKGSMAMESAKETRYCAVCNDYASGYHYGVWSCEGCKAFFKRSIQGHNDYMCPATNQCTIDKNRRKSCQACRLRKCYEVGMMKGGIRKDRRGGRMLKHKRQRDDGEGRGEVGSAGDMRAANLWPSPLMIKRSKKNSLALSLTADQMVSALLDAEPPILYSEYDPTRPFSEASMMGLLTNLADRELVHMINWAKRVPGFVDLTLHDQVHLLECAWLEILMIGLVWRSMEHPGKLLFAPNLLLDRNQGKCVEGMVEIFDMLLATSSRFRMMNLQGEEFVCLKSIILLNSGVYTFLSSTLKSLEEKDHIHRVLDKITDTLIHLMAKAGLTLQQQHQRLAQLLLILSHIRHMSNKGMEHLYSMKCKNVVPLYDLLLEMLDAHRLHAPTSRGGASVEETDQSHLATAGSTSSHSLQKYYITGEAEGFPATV

[15] = system: MCF7R; test: Cytotoxicity against human MCF7R cells assessed as cell growth inhibition and by MTT assay; format: functional, cell-based
[16] = target: Tubulin (Sus scrofa, UniProt P02554+P02550); test: Inhibition of pig brain tubulin polymerization by spectrometric method
[17] = system: MCF7; test: Induction of apoptosis in human MCF7 cells assessed as early apoptosis cells at 2.0 uM measured after 24 hrs by annexin-V-FITC and PI staining based flow cytometry analysis (reference value: 0.486%); format: functional
[18] = system: MCF7; test: Induction of apoptosis in human MCF7 cells assessed as late apoptosis cells at 2.0 uM measured after 24 hrs by annexin-V-FITC and PI staining based flow cytometry analysis (reference value: 0.529%); format: functional
[19] = target: T4, Aromatase (Homo sapiens, UniProt P11511); test: Inhibition of human recombinant aromatase expressed in baculovirus insect cell using 7-methoxy-trifluoromethyl coumarin (MFC) as substrate preincubated for 10 mins followed by substrate addition and measured for 30 mins by fluorescence based assay
T4 sequence (P11511 whole entry): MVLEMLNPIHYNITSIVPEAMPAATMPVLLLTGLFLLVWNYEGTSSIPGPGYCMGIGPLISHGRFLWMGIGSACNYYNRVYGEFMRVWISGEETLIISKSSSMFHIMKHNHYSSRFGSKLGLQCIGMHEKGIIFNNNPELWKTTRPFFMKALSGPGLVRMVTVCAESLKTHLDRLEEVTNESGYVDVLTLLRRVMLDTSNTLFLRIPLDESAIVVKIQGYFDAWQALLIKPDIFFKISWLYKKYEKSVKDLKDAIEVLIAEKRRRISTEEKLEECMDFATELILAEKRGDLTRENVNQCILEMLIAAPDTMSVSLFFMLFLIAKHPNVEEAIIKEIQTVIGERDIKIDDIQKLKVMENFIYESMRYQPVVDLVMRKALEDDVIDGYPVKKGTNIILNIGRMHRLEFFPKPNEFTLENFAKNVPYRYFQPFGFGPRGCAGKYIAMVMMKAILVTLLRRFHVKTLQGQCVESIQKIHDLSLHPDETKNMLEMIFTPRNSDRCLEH

SMILES: Cc1ccc(-c2cc(N3CCN(Cc4ccc(C(F)(F)F)cc4)CC3)no2)cc1
IC50 [1]: 24 µM | IC50 [2]: > 40 µM | IC50 [3]: 9.4 µM

SMILES: COc1ccc(C2CC(c3ccno3)=NN2C(N)=O)cc1OC (stereo not given)
IC50 [4]: 4 µg/mL (≈ 12.6 µM)

IC50 [5]: 10 µM
SMILES: COc1ccc(-c2oncc2-c2ccccc2Cl)c2ccccc12

IC50 [6]: 4.31 µM | IC50 [7]: 2.81 µM | IC50 [8]: 2.04 µM | IC50 [10]: 2.87 µM
SMILES: COc1cc(N(Cc2c(C)noc2C)C(=O)CSc2nc3ccccc3s2)cc(OC)c1OC
IC50 [9]: 2.13 µM

SMILES: Nc1nn(Cc2cc(-c3cccc(C(F)(F)F)c3)no2)c2nc(-c3cccs3)cc(C(F)(F)F)c12
IC50 [11]: 13.4 µM

SMILES: COc1cccc(-c2cc(Cn3nc(N)c4c(C(F)(F)F)cc(-c5cccs5)nc43)on2)c1
IC50 [11]: 19.4 µM

SMILES: Fc1ccc(-c2cc(N3CCN(Cc4ccc(C(F)(F)F)cc4)CC3)no2)cc1
IC50 [1]: 5.3 µM | IC50 [2]: 6.2 µM | IC50 [3]: 11.9 µM

SMILES: Cc1cc(COc2ccc(-c3cc(N4CCN(Cc5ccc(C(F)(F)F)cc5)CC4)no3)cc2)n(C)n1
IC50 [1]: 0.3 µM | IC50 [2]: 3.7 µM | IC50 [3]: 1.2 µM

SMILES: CS(=O)(=O)c1ccc(-c2cc(N3CCN(Cc4ccc(C(F)(F)F)cc4)CC3)no2)cc1
IC50 [1]: 4.2 µM | IC50 [2]: 26 µM | IC50 [3]: 2.9 µM

IC50 [12]: 5.37 µM | IC50 [13]: 7.58 µM
SMILES: O=C(O)c1cccc(/C=C/c2ccc(Oc3cnoc3-c3cccc(Cl)c3)cc2)c1

IC50 [14]: 91.1 µM
SMILES: COc1onc(-c2ccc(O)cc2)c1-c1oc2ccccc2c(=O)c1O

IC50 [12]: 2.05 µM | IC50 [13]: 13.2 µM
SMILES: O=C(O)c1cccc(/C=C/c2ccc(Oc3cnoc3-c3cccc([N+](=O)[O-])c3)cc2)c1

SMILES: O=S(=O)(Nc1ccc(-c2cn[nH]c2)cc1)c1ccc(Cl)cc1
IC50 [3]: 50 µM

SMILES: CCCOc1ccc(-c2cc(N3CCN(Cc4ccc(C(F)(F)F)cc4)CC3)no2)cc1
IC50 [1]: 8.8 µM | IC50 [2]: 7.7 µM | IC50 [3]: 4.9 µM

SMILES: COc1ccc(/C=C/c2cc(/C=C/c3ccc(O)c(OC)c3)no2)cc1O
IC50 [15]: 12 µM | IC50 [11]: 13.1 µM

IC50 [5]: 1.23 µM | IC50 [16]: 3.4 µM
SMILES: CCOc1ccc(-c2cnoc2-c2ccc(OC)c3ccccc23)cc1
inhibition at 2 µM [17]: 15.3% | inhibition at 2 µM [18]: 6.44%

IC50 [12]: 1.75 µM | IC50 [13]: 36.2 µM
SMILES: O=C(O)c1cccc(/C=C/c2ccc(Oc3cnoc3-c3ccccc3Cl)cc2)c1

SMILES: COc1ccc(C2CC(c3ccno3)=NN2C(N)=O)c(F)c1OC (stereo not given)
IC50 [4]: 2 µg/mL (≈ 5.98 µM)

IC50 [19]: 0.0023 µM
SMILES: Cc1c(-c2nocc2C(=O)SC#N)c(=O)n(-c2ccccc2)n1C
